Data: ChEMBL document CHEMBL1759848, “[11C]sorafenib: radiosynthesis and preliminary PET study of brain uptake in P-gp/Bcrp knockout mice” (Bioorg Med Chem Lett, 2011)

Legend:
Assay type in all cases: ADME, tissue-based; call rule not given here
Brain [1] = test: Drug uptake in P-gp/Bcrp knockout mouse brain by Positron emission tomography; conditions: in vivo
Brain [2] = test: Drug uptake in P-gp/Bcrp knockout mouse brain after 60 mins; conditions: in vivo, 1 h
Brain [3] = test: Drug uptake in wild-type mouse brain by Positron emission tomography; conditions: in vivo
Brain [4] = test: Drug uptake in wild-type mouse brain after 60 mins; conditions: in vivo, 1 h

Drug uptake (Brain [1]): Active | SUV (Brain [2]): 6.72 | Drug uptake (Brain [3]): Active | SUV (Brain [4]): 18.83
SMILES: CNC(=O)c1cc(Oc2ccc(N[11C](=O)Nc3ccc(Cl)c(C(F)(F)F)c3)cc2)ccn1 [[11C]-SORAFENIB]
